Values joined by “and” are separate entries in the source; they are usually repeats but may differ in a detail not shown here. Equal values may be shown once.
Assays:
Hamp = test: D-iOrgans real-time PCR, STZ/Control relative expression, Hamp; assay type: in vivo, mouse
Experimental: (§1) 1 μg of total RNA obtained from each tissue was used as a template for cDNA synthesis, and cDNA was synthesized using Oligo dT20 primer according to the standard protocol of Superscript III First-Strand Synthesis Supermix (Life Technologies). After the synthesized cDNA was diluted 20-fold with 10-fold diluted TE buffer (10 mM Tris-HCl, pH 8.0, 0.1 mM EDTA), real-time PCR was performed with a […] (Roche) according to the standard protocol of LightCycler 480 SYBR Green I Master (Roche) and Cp values were measured. The relative expression level of each gene relative to the reference gene was calculated by comparing the Cp value obtained for each gene with the Cp value for β2-microglobulin (B2m) or Maea as a reference gene, and MI/Sham was determined. However, with the primer set for Hba-a, Hba-a1 and Hba-a2 cannot be distinguished in PCR, and with the primer set for Hbb-b, Hbb-bs, and Hbb-bt cannot be distinguished in PCR. […]
(§2) Real-time PCR was conducted according to the procedure described in 1-4 (4) of “I. iOrgans” to measure Cp values. The relative expression level of each gene relative to the reference gene was calculated by comparing the Cp value obtained for each gene with the Cp value for β2-microglobulin (B2m) or Maea as a reference gene to, and STZ/Control was determined. […]

[1] = Blood glucose level after administration of STZ (simple blood glucose meter, tail vein); assay type: in vivo, mouse; conditions: STZ 75 mg/kg intraperitoneally for 3 consecutive days, 4-week-old male C57BL/6NCr Slc mice, fasted overnight; individual animals
Experimental: (§3) 0.01% citrate buffer solution (pH 4.5) of streptozotocin (STZ) was intraperitoneally administered to 4-week-old male C57BL/6NCr Slc mice in an amount of 75 mg/kg in terms of STZ for 3 consecutive days (administered solution amount: 10 mL/kg). 0.01% citrate buffer solution (pH 4.5), which is a solvent, was intraperitoneally administered to the control group for 3 consecutive days (administered solution amount: 10 mL/kg). The animals from which the organs and tissue were to be collected were fasted overnight from the day before dissection. On the day of dissection, the tail vein of each mouse was cut, and the blood glucose level was measured with a simple blood glucose meter. On the following day, the mice were euthanized by cervical dislocation without anesthesia, and the organs and tissue were collected. After the wet weights of the collected organs and tissue were measured, the organs and tissue were rapidly frozen in liquid nitrogen and stored at −80° C.

[2] = Body weight at dissection after administration of STZ; assay type: in vivo, mouse; conditions: STZ 75 mg/kg intraperitoneally for 3 consecutive days, 4-week-old male C57BL/6NCr Slc mice; individual animals
Experimental: as §3

Saa1 = test: D-iOrgans real-time PCR, STZ/Control relative expression, Saa1; assay type: in vivo, mouse; conditions: liver of the STZ administration mice
Experimental: as §1, §2

[3] = administered to a mouse for a week or more; cited from earlier work

CN(N=O)C(=O)N[C@H]1C(O)O[C@H](CO)[C@@H](O)[C@@H]1O (mixture of isomers) [STZ, streptozotocin]
Expression of Hamp in the heart (STZ/Control) (Hamp; heart, STZ administration mice, day after 3 days of STZ): increase | Predicted side effect in the heart from Hamp expression (Hamp; inferred from known function of Hamp (iron metabolism)): decrease the amount of iron in cardiac cells | Blood glucose [1]: 65 mg/dL and 83 mg/dL and 42 mg/dL | Body weight at dissection [2]: 12.8 g (2×) and 10.3 g | Expression of Saa1 in the liver (STZ/Control) (Saa1): increase | Glycemic state after long administration [3]: becomes hyperglycemic
